Non-standard residues stand in square brackets, D forms with d. Residues, ends and D or L forms follow the SMILES beside them. No end group written: not given here. *: point of attachment. Sta = CC(C)C[C@H](N)[C@@H](O)CC(=O)O; Isovaleryl = CC(C)CC(=O)*
What was measured:
HIV protease [1] = conditions: cited from earlier work
[2] = test system: synthetic protease (99-residue peptide with the sequence proposed for the HIV protease); conditions: cited from earlier work
HIV protease [3] = conditions: cited from earlier work; remark: listed apart in the source
HIV protease [4] = target: HIV protease (HIV-1 M:B_HXB2R, UniProt P04585); assay: Cleavage of tetradecapeptide substrate by HIV protease, Ang I determined by RIA; assay type: biochemical
Excerpt: The tetradecapeptide (TDP) substrate, Asp-Arg-Val-Tyr-Ile-His-Pro-Phe-His-Leu-Leu-Val-Tyr-Ser, was obtained from Peninsula Laboratories, Inc., Belmont, Calif. The Ang I RIA kit was purchased from Baxter Health Care Corporation, Cambridge, Mass. Recombinant HIV-1 protease was purified and refolded from E. coli as published previously (Tomasselli, A. G. et. al. (1990) Biochemistry 29, 264-269). The TDP substrate has an HIV protease cleavage site which when cut at the Leu-Leu bond produces authentic Ang I. The Ang I RIA kit detected the Angiotesin I if produced.
The various steps of the in vitro assay to screen a compound were performed as follows. The series of assays are done for each compound, each assay using a different concentration of compound. The various reagents were added to the system in the order which they are listed.
1. 52 μl assay buffer (0.1M Sodium Acetate, 10% glycerol, 3 mM EDTA, 5% ethylene glycol, 1 mg/ml BSA, pH 5.5)
2. 15 μl HIV-1 protease (final Concentration in assay 0.75 μg/ml). For inhibition studies, 12 μl of inhibitor solution was added prior to adding the enzyme.
3. 135 μl of 2.8 uM substrate (final concentration about 1.9 μM)
4. […]
5. […] Following an overnight equilibration at room temperature, the tubes are drained and the amount of radioactivity (^125 I-labeled Ang I) remaining on the tube is determined in a gamma counter. […]

## CC(C)CC(=O)N[C@H](C(=O)N[C@H](C(=O)N[C@@H](CC(C)C)[C@@H](O)CC(=O)N[C@@H](C)C(=O)N[C@@H](CC(C)C)[C@@H](O)CC(=O)O)C(C)C)C(C)C [pepstatin A] (Isovaleryl-VV[Sta]A[Sta]-OH)
HIV protease [1]
  inhibition of cleavage of gag precursor polyproteins by HIV protease: can be inhibited by pepstatin A
[2]
  inhibition of proteolytic action of the synthetic protease: can be inhibited by pepstatin
HIV protease [3]
  inhibition of autoprocessing which liberates the protease from the precursor: can be inhibited

## DRVYIHPFHLLVYS [TDP]
HIV protease [4]
  cleavage of substrate by HIV protease: HIV protease cleaves the Ang I substrate
